Data as given in ChEMBL document CHEMBL5303765, “Data for DCP probe BAY-7081” (2023).
Active and inactive are the calls of the source. No cut-off for these calls is given here.

What was measured:
[1] = target: T1, Ephrin type-B receptor 1 (Homo sapiens) (UniProt P54762); test: EPHB1 SGC Tm panel (DSF); conditions: for ΔTm: Compound concentration 10.0 uM
T1 sequence (whole entry): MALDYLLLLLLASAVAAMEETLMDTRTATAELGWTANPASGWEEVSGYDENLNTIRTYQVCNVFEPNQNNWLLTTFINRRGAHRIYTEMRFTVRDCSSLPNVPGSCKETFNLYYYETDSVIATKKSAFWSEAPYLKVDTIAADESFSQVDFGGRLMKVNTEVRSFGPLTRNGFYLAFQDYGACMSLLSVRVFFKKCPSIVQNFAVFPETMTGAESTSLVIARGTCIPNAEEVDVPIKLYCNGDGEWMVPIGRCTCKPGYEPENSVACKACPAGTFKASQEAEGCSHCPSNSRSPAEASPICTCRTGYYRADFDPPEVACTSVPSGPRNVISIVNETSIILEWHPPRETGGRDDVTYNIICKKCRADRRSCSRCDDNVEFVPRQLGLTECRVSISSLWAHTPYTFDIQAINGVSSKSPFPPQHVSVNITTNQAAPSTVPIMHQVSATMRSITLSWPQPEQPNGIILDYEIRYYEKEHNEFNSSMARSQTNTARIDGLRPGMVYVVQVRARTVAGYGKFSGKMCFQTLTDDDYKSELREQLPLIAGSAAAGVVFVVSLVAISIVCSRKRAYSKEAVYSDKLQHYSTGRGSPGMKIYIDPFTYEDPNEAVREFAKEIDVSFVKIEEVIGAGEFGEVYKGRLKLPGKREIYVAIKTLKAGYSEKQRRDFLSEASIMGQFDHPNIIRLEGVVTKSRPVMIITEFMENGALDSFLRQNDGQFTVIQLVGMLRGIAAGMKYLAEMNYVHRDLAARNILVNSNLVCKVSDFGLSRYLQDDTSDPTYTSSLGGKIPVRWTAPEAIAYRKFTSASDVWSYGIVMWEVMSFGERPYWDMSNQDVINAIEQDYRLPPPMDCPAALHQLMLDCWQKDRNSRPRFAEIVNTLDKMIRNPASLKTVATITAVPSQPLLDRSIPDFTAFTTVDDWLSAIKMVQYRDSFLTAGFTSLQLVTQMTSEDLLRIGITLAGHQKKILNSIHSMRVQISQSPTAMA

[2] = target: Dual specificity protein kinase CLK3 (Homo sapiens) (UniProt P49761); test: CLK3 SGC Tm panel (DSF); conditions: for ΔTm: Compound concentration 10.0 uM
Chain of Dual specificity protein kinase CLK3 (Homo sapiens) (P49761 whole entry, looked up): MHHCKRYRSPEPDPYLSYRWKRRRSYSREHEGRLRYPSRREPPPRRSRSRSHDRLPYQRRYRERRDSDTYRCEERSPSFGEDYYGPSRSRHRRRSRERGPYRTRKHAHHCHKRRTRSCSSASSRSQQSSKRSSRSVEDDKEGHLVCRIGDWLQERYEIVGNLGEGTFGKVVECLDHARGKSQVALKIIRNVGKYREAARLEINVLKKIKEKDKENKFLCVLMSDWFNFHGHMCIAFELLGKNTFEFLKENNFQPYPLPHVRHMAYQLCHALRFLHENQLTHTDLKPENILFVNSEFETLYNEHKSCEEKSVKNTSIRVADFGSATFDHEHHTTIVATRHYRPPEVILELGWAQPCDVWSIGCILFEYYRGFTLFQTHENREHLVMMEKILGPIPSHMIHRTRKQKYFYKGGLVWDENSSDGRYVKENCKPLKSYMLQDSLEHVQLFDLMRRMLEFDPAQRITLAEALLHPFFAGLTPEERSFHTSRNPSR

[3] = target: T2, 5-hydroxytryptamine receptor 2C (Homo sapiens) (UniProt P28335); conditions: Compound concentration 10.0 uM
T2 sequence (whole entry): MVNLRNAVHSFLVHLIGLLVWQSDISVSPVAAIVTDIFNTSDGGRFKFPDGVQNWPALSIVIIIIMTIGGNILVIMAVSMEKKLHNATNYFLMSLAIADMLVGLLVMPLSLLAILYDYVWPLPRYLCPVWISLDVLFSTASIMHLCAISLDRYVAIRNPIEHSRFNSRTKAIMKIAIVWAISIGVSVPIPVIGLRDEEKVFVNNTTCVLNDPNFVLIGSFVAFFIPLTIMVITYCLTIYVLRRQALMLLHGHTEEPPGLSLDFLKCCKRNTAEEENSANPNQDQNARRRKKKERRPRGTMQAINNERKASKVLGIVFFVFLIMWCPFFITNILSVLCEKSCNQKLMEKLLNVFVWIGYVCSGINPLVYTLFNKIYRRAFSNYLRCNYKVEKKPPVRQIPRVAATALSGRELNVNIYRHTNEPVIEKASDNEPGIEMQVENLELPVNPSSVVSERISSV

[4] = target: Death-associated protein kinase 3 (Homo sapiens) (UniProt O43293); test: DAPK3 SGC Tm panel (DSF); conditions: for ΔTm: Compound concentration 10.0 uM
Chain of Death-associated protein kinase 3 (Homo sapiens) (O43293 whole entry, looked up): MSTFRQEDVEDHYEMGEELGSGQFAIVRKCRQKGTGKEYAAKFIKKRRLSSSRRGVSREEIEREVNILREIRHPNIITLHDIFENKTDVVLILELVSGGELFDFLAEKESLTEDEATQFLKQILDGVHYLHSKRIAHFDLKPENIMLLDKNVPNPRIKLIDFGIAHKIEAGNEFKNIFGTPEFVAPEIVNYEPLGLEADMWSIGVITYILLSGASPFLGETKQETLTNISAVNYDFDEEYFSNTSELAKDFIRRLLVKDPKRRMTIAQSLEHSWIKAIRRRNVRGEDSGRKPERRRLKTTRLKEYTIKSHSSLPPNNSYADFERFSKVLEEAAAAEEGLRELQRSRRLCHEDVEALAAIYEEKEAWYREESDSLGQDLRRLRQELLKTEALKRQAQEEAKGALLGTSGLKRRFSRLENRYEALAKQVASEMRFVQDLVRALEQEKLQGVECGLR

[5] = target: Beta-1 adrenergic receptor (Homo sapiens) (UniProt P08588); conditions: Compound concentration 10.0 uM
Chain of Beta-1 adrenergic receptor (Homo sapiens) (P08588 whole entry, looked up): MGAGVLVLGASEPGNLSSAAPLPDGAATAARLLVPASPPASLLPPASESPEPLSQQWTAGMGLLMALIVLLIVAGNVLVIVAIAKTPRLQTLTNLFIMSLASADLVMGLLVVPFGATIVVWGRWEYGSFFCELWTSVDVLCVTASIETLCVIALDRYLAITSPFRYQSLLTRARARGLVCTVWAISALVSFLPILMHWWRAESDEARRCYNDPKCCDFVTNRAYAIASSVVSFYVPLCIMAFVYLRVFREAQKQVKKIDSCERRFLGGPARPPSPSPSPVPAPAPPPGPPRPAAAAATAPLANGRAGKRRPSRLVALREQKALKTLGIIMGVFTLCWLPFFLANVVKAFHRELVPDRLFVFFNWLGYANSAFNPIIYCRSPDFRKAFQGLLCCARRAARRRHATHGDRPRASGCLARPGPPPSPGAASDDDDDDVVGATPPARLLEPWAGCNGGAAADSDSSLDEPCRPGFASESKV

[6] = target: High affinity cGMP-specific 3',5'-cyclic phosphodiesterase 9A (Homo sapiens, UniProt O76083); test: 3H-cAMP and 3H-cGMP Scintillation Proximity Assay (PDE9A)
Chain of High affinity cGMP-specific 3',5'-cyclic phosphodiesterase 9A (O76083 whole entry): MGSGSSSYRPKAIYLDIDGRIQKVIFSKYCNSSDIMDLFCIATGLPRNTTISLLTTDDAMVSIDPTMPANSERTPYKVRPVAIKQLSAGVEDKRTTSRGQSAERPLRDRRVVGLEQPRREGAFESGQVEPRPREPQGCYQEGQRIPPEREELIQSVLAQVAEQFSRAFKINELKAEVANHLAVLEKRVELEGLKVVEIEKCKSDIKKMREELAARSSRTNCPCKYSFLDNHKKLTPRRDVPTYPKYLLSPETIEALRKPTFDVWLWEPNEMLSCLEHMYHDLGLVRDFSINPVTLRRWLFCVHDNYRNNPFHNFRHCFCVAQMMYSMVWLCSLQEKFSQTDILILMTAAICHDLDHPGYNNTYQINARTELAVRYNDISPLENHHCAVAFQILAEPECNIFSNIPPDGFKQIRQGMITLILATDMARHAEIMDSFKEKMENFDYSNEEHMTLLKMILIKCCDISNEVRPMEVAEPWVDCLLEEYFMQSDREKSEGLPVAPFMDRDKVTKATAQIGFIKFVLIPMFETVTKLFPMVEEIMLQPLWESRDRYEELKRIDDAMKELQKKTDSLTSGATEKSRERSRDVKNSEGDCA

[7] = target: Calcium/calmodulin-dependent protein kinase type 1G (Homo sapiens) (UniProt Q96NX5); test: CAMK1G SGC Tm panel (DSF); conditions: for ΔTm: Compound concentration 10.0 uM
Chain of Calcium/calmodulin-dependent protein kinase type 1G (Homo sapiens) (Q96NX5 whole entry): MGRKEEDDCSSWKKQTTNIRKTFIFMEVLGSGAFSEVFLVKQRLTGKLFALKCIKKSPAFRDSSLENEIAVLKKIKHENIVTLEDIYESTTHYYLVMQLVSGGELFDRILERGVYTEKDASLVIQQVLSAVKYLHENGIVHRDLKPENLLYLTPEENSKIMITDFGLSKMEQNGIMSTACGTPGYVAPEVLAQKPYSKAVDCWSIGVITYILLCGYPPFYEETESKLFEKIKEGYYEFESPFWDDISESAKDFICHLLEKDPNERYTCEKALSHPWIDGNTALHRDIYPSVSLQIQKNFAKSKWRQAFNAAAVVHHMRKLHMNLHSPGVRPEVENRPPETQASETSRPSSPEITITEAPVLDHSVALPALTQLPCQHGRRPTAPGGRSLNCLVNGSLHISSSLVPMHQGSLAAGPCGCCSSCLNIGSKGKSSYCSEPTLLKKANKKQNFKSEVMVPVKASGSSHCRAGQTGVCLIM

[8] = target: T3, Alpha-2A adrenergic receptor (Homo sapiens) (UniProt P08913); conditions: Compound concentration 10.0 uM
T3 sequence (whole entry): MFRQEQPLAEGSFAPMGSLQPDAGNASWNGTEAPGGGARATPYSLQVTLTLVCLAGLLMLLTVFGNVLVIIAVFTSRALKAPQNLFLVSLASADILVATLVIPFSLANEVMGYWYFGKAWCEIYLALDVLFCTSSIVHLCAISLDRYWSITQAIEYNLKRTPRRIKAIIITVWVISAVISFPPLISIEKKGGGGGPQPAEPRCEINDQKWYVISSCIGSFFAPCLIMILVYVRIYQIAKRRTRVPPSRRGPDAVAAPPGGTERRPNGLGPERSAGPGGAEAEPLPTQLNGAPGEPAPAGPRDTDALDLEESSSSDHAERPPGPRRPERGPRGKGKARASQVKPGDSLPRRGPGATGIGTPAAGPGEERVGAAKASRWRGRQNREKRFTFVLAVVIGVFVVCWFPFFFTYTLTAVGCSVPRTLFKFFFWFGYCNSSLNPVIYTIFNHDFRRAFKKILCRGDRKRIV

[9] = target: Maternal embryonic leucine zipper kinase (Homo sapiens) (UniProt Q14680); test: MELK SGC Tm panel (DSF); conditions: for ΔTm: Compound concentration 10.0 uM
Chain of Maternal embryonic leucine zipper kinase (Homo sapiens) (Q14680 whole entry, looked up, canonical isoform): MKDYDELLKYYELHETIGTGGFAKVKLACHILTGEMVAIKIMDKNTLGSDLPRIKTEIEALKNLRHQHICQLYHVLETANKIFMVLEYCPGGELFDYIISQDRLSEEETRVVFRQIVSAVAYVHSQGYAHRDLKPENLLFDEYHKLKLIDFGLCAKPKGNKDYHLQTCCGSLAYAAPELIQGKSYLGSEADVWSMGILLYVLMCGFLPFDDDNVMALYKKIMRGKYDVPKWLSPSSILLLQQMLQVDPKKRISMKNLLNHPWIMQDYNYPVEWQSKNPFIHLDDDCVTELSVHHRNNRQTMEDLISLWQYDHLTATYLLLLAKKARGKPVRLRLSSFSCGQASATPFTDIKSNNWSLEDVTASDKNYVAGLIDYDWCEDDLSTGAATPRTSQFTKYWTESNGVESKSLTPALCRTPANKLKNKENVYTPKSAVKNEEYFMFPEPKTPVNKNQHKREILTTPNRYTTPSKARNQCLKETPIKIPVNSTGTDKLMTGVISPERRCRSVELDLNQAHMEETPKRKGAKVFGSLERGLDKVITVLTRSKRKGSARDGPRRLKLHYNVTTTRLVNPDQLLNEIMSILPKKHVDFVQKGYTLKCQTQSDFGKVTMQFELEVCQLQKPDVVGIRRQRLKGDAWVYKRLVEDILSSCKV

[10] = target: T4, Phosphorylase b kinase gamma catalytic chain, liver/testis isoform (Homo sapiens) (UniProt P15735); test: PHKG2 SGC Tm panel (DSF); conditions: for ΔTm: Compound concentration 10.0 uM
T4 sequence (whole entry): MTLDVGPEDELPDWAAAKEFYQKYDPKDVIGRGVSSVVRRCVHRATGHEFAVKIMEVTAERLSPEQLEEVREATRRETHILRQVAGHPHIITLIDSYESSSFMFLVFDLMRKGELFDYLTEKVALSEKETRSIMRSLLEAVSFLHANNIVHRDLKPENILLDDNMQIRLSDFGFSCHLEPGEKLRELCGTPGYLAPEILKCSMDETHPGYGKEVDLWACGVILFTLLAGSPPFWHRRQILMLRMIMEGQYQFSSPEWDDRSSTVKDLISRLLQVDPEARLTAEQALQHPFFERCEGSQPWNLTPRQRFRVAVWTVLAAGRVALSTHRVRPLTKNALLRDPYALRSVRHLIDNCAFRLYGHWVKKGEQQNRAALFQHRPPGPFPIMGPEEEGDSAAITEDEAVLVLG

[11] = target: Serine/threonine-protein kinase 24 (Homo sapiens) (UniProt Q9Y6E0); test: MST3 SGC Tm panel (DSF); conditions: for ΔTm: Compound concentration 10.0 uM
Chain of Serine/threonine-protein kinase 24 (Homo sapiens) (Q9Y6E0 whole entry, looked up): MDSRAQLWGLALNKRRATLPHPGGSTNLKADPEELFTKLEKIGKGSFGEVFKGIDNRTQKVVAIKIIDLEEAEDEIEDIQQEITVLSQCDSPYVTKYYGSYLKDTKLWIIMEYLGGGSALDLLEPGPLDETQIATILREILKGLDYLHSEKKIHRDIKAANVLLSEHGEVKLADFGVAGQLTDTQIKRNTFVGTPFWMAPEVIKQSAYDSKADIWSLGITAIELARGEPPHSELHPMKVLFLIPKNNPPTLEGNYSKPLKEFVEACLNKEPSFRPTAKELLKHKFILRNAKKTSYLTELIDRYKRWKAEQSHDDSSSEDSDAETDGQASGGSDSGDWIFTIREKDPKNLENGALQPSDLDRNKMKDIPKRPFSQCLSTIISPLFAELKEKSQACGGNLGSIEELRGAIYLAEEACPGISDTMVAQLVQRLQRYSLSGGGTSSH

[12] = target: D(1B) dopamine receptor (Homo sapiens) (UniProt P21918); conditions: Compound concentration 10.0 uM
Chain of D(1B) dopamine receptor (Homo sapiens) (P21918 whole entry): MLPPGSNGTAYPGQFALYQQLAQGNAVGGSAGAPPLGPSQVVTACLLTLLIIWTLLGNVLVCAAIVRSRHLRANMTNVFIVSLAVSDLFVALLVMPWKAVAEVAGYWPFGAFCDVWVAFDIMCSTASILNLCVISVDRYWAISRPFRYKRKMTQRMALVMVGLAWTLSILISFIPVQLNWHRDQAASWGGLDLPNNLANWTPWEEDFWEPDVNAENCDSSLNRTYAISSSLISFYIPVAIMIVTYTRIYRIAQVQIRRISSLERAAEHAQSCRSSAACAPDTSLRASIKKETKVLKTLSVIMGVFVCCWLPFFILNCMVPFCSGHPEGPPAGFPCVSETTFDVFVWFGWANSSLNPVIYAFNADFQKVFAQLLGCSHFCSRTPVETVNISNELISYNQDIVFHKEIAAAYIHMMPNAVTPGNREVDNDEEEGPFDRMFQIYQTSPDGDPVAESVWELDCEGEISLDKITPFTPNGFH

SMILES | delta Tm Staurosporine positive control [1] | ΔTm [1] | delta Tm Staurosporine positive control [2] | ΔTm [2] | inhibition [3] [%] | delta Tm Staurosporine positive control [4] | ΔTm [4] | inhibition [5] [%] | IC50 [6] | delta Tm Staurosporine positive control [7] | ΔTm [7] | inhibition [8] [%] | delta Tm Staurosporine positive control [9] | ΔTm [9] | delta Tm Staurosporine positive control [10] | ΔTm [10] | delta Tm Staurosporine positive control [11] | ΔTm [11] | inhibition [12] [%]
CCC[C@@H]1CNCc2c1[nH]c(=O)c(C#N)c2N1CCC2(CC1)CC2 | 5.62 | 0.00973 | 5.3 | -0.379 | 9.88 | 16.6 | 0.29 | 5.97 | > 10 µM (not active) | 11.2 | -0.416 | 9.55 | 14.2 | 0.193 | 21.5 | -0.827 | 7.85 | -2.14 | 4.19
CCC[C@H]1CNCc2c1[nH]c(=O)c(C#N)c2N1CCC2(CC1)CC2 | 5.62 | 0.0299 | 5.3 | -0.402 | 8.81 | 16.6 | 0.222 | -8.08 | 0.015 µM (active) | 11.2 | -0.348 | 5.64 | 14.2 | -0.201 | 21.5 | -0.755 | 7.85 | -2.08 | 2.11
